{"source": "paper PMC11007962", "about": "“First-in-human study of GFH018, a small molecule inhibitor of transforming growth factor-β receptor I inhibitor, in patients with advanced solid tumors” (BMC Cancer, 2024)", "origin": "cited, not measured here", "key": {"[1]": {"tested_on": "TGF-β-induced SMAD3 phosphorylation", "design": "method as in doi:10.1158/1538-7445.AM2019-3072", "conditions": "preclinical; cited from earlier work"}, "[2]": {"design": "method as in doi:10.1158/1538-7445.AM2019-3072", "conditions": "preclinical; cited from earlier work"}}, "data": [{"smiles": "Cc1cccc(-c2nn3c(c2-c2ccc4ncnn4c2/C=C/C(N)=O)CCC3)n1", "note": "[GFH018]", "values": [{"measurement": "effect on TGF-β-induced SMAD3 phosphorylation", "setting": "[1]", "result": "ability to inhibit TGF-β-induced SMAD3 phosphorylation"}, {"measurement": "effect in combination with anti-PD-1/L1 antibodies", "setting": "[2]", "result": "Synergistic effects were observed"}]}]}
